Test results published in patent US12458021B2, “Microbiocidal derivatives” (SYNGENTA CROP PROTECTION AG, priority 2019, dated 2025).

Key:
Alternaria solani = Alternaria solani / tomato / leaf disc (early blight); format: in vivo; conditions: foliar, tomato leaf disks cv. Baby, inoculated 2 days after application, assessed 5-7 days after application, read-out: control of Alternaria solani (percent disease control compared to untreated)
Protocol: Example B1: Alternaria solani/Tomato/Leaf Disc (Early Blight) Tomato leaf disks cv. Baby are placed on agar in multiwell plates (24-well format) and sprayed with the formulated test compound diluted in water. The leaf disks are inoculated with a spore suspension of the fungus 2 days after application. The inoculated leaf disks are incubated at 23° C./21° C. […] […]-185.

[1] = test system: Glomerella lagenarium (Colletotrichum lagenarium); assay: Glomerella lagenarium (Colletotrichum lagenarium) / liquid culture (anthracnose); format: cell-based; conditions: Colletotrichum orbiculare, PDB potato dextrose broth, 24° C., 3-4 days after application, read-out: control of Glomerella lagenarium (inhibition of growth, photometric)
In short: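 Conidia from cryogenic storage suspended in potato dextrose broth and added to DMSO compound solution in plates. Incubated at 24° C; growth inhibition read photometrically 3-4 days after application.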

[2] = test system: Monographella nivalis (Microdochium nivale); assay: Monographella nivalis (Microdochium nivale) / liquid culture (foot rot cereals); format: cell-based; conditions: PDB potato dextrose broth, 24° C., 4-5 days after application, read-out: control of Monographella nivalis (inhibition of growth, photometric)
In short: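 Cryostored M. nivalis conidia mixed into potato dextrose broth and added to 96-well plates holding test compound in DMSO. Incubated at 24° C; growth inhibition read photometrically 4-5 days after application.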

[3] = test system: Magnaporthe grisea (Pyricularia oryzae); assay: whole plant or invertebrate; format: in vivo; conditions: foliar, read-out: control of Magnaporthe grisea (percent disease control compared to untreated)
[4] = test system: Mycosphaerella graminicola (Septoria tritici); assay: Mycosphaerella graminicola (Septoria tritici) / liquid culture (Septoria blotch); format: cell-based; conditions: Zymoseptoria tritici, PDB potato dextrose broth, 24° C., 4-5 days after application, read-out: control of Mycosphaerella graminicola (inhibition of growth, photometric)
In short: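 Conidia from cryogenic storage were mixed into potato dextrose broth and added to test compound in DMSO. Plates were incubated at 24° C, and growth inhibition was read photometrically 4-5 days after application.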

[5] = test system: Blumeria graminis f. sp. tritici (Erysiphe graminis f. sp. tritici); assay: Blumeria graminis f. sp. tritici / wheat / leaf disc preventative (powdery mildew on wheat); format: in vivo; conditions: foliar, wheat leaf segments cv. Kanzler, inoculated 1 day after application, assessed 6-8 days after application, read-out: control of Blumeria graminis f. sp. tritici (percent disease control compared to untreated)
Excerpt: Example B4: Blumeria graminis f. sp. tritici (Erysiphe graminis f. sp. tritici)/Wheat/Leaf Disc Preventative (Powdery Mildew on Wheat) Wheat leaf segments cv. Kanzler are placed on agar in a multiwell plate (24-well format) and sprayed with the formulated test compound diluted in water. The leaf disks are inoculated by shaking powdery mildew infected plants above the test plates 1 day after application. […] […]-192.

[6] = test system: Puccinia recondita f. sp. tritici; assay: Puccinia recondita f. sp. tritici / wheat / leaf disc preventative (brown rust); format: in vivo; conditions: foliar, wheat leaf segments cv. Kanzler, inoculated 1 day after application, assessed 7-9 days after application, read-out: control of Puccinia recondita f. sp. tritici, preventative (percent disease control compared to untreated)
Protocol: Example B11: Puccinia recondita f. sp. tritici/Wheat/Leaf Disc Preventative (Brown Rust) Wheat leaf segments cv. Kanzler are placed on agar in multiwell plates (24-well format) and sprayed with the formulated test compound diluted in water. The leaf disks are inoculated with a spore suspension of the fungus 1 day after application. The inoculated leaf segments are incubated at 19° C. and 75% rh under a light regime of 12 h light/12 h darkness in a climate cabinet and the activity of a compound is assessed as percent disease control compared to untreated when an appropriate level of disease damage appears in untreated check leaf segments (7-9 days after application). […] […]-190.

COc1ccc(Nc2cc(F)cc(F)c2)nc1C(=O)NC1CCS(=O)(=O)CC1 [Compound P-78, 6-(3,5-difluoroanilino)-N-(1,1-dioxothian-4-yl)-3-methoxy-pyridine-2-carboxamide]
≥ 80%: pest or weed control at 200 ppm (Alternaria solani)

COc1ccc(Nc2cc(F)cc(F)c2)nc1C(=O)NCc1c(Cl)cncc1Cl [Compound P-66, N-[(3,5-dichloro-4-pyridyl)methyl]-6-(3,5-difluoroanilino)-3-methoxy-pyridine-2-carboxamide]
≥ 80%: pest or weed control at 200 ppm (Alternaria solani) | inhibition at 20 ppm [1] | inhibition at 20 ppm [2] | pest or weed control at 200 ppm [3] | inhibition at 20 ppm [4]

COc1ccc(Nc2cc(F)cc(F)c2)nc1C(=O)NCC1COc2ccccc21 (stereo not drawn) [Compound P-60, 6-(3,5-difluoroanilino)-N-(2,3-dihydrobenzofuran-3-ylmethyl)-3-methoxy-pyridine-2-carboxamide]
≥ 80%: pest or weed control at 200 ppm (Alternaria solani) | inhibition at 20 ppm [1] | inhibition at 20 ppm [2] | pest or weed control at 200 ppm [3] | inhibition at 20 ppm [4]

COc1ccc(Nc2cc(F)cc(F)c2)nc1C(=O)NC1COC(C2CC2)C1 (stereo not drawn) [Compound P-65, N-(5-cyclopropyltetrahydrofuran-3-yl)-6-(3,5-difluoroanilino)-3-methoxy-pyridine-2-carboxamide]
≥ 80%: pest or weed control at 200 ppm (Alternaria solani) | inhibition at 20 ppm [1] | pest or weed control at 200 ppm [5] | inhibition at 20 ppm [2] | pest or weed control at 200 ppm [3] | inhibition at 20 ppm [4]

C#CCOc1ccc(Nc2cc(F)cc(F)c2)nc1C(=O)NC1CCC1(C)C (stereo not drawn) [Compound P-86, 6-(3,5-difluoroanilino)-N-(2,2-dimethylcyclobutyl)-3-prop-2-ynoxy-pyridine-2-carboxamide]
≥ 80%: pest or weed control at 200 ppm (Alternaria solani) | inhibition at 20 ppm [1] | inhibition at 20 ppm [2]

COc1ccc(Nc2cc(Cl)cc(Cl)c2)nc1C(=O)NC(C)(C)C [Compound P-148, N-tert-butyl-6-(3,5-dichloroanilino)-3-methoxy-pyridine-2-carboxamide]
≥ 80%: pest or weed control at 200 ppm (Alternaria solani) | inhibition at 20 ppm [1] | inhibition at 20 ppm [2] | pest or weed control at 200 ppm [6] | pest or weed control at 200 ppm [3] | inhibition at 20 ppm [4]

COc1ccc(Nc2cnsc2)nc1C(=O)NCC1(C(F)(F)F)CC1 [Compound P-83, 6-(isothiazol-4-ylamino)-3-methoxy-N-[[1-(trifluoromethyl)cyclopropyl]methyl]pyridine-2-carboxamide]
≥ 80%: pest or weed control at 200 ppm (Alternaria solani) | inhibition at 20 ppm [1] | pest or weed control at 200 ppm [5] | inhibition at 20 ppm [2] | inhibition at 20 ppm [4]

COc1ccc(Nc2cc(F)cc(F)c2)nc1C(=O)NCC1(C)CCOC1 (stereo not drawn) [Compound P-68, 6-(3,5-difluoroanilino)-3-methoxy-N-[(3-methyltetrahydrofuran-3-yl)methyl]pyridine-2-carboxamide]
≥ 80%: pest or weed control at 200 ppm (Alternaria solani) | inhibition at 20 ppm [1] | pest or weed control at 200 ppm [5] | inhibition at 20 ppm [2] | pest or weed control at 200 ppm [3] | inhibition at 20 ppm [4]

CC(C)Oc1ccc(Nc2cc(F)cc(F)c2)nc1C(=O)NC1CCC1(C)C (stereo not drawn) [Compound P-87, 6-(3,5-difluoroanilino)-N-(2,2-dimethylcyclobutyl)-3-isopropoxy-pyridine-2-carboxamide]
≥ 80%: pest or weed control at 200 ppm (Alternaria solani) | inhibition at 20 ppm [1] | inhibition at 20 ppm [2] | pest or weed control at 200 ppm [3]

COc1ccc(Nc2cc(F)nc(F)c2)nc1C(=O)NC1(C#N)CCCC1 [Compound P-125, N-(1-cyanocyclopentyl)-6-[(2,6-difluoro-4-pyridyl)amino]-3-methoxy-pyridine-2-carboxamide]
≥ 80%: pest or weed control at 200 ppm (Alternaria solani) | pest or weed control at 200 ppm [5] | pest or weed control at 200 ppm [6] | pest or weed control at 200 ppm [3]
